Entries after “also recorded” stand apart in the source; their conditions may differ.
Assays:
LXRα-LBD = biological target: T1, LXRα-LBD (Homo sapiens, UniProt Q13133); assay: Mammalian two-hybrid assay, RAP250-Del4 with pVP16-LXRα-LBD; assay type: cell-based; conditions: ligand alone, 10 µM; Huh7 cells
T1 construct: expressed in transfected cells; host or cells: Huh7 (printed 'Hhu7') human liver cell line
T1 sequence (Q13133 209-447 limits assumed): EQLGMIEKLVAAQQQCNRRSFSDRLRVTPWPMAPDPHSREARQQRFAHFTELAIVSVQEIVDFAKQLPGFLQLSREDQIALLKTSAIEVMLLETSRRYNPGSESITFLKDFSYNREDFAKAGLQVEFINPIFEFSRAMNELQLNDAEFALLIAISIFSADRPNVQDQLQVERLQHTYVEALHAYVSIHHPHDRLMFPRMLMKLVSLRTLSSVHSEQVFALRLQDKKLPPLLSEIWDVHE

LXRβ-LBD = biological target: T2, LXRβ-LBD (Homo sapiens, UniProt P55055); assay: Mammalian two-hybrid assay, RAP250-Del4 with pVP16-LXRβ-LBD; assay type: cell-based; conditions: ligand alone, 10 µM; Huh7 cells
T2 construct: expressed in transfected cells; host or cells: Huh7 (printed 'Hhu7') human liver cell line
T2 sequence (P55055 222-460 limits assumed): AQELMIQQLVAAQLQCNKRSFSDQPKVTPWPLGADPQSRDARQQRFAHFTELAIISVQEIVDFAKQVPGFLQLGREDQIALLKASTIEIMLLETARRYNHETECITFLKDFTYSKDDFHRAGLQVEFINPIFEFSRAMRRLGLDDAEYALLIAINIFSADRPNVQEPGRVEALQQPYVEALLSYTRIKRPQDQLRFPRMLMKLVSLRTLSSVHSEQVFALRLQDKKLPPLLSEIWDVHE

LXRα = biological target: T3, LXRα (Homo sapiens, UniProt Q13133); assay: Luciferase-based reporter assay for LXRα transcriptional activity (HEK293, Gal4-LXRα); assay type: cell-based; conditions: for antagonism of LXRα activation induced by 22R-HC: 22R-HC 5 or 10 µM, titrating amounts of compound (1-50 µM)
T3 construct: expressed in transfected cells; host or cells: HEK293
T3 sequence (Q13133 1-447): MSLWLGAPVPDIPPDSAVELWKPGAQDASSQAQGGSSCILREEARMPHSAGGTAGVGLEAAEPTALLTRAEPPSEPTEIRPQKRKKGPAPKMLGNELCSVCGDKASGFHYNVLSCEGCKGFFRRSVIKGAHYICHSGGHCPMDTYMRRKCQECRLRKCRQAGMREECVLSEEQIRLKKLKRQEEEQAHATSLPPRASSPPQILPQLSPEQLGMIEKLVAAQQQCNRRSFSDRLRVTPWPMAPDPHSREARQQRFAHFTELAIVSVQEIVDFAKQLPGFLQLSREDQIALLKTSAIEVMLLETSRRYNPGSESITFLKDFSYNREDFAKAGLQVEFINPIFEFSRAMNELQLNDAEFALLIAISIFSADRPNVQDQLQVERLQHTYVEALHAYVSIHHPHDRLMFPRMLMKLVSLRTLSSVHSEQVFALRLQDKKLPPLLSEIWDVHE
Description: Reporter assay for nuclear receptor transcriptional activity. Human embryonic Kidney 293 cells (American Type Culture Collection) were cultured in Dulbecco's Modified Eagle's medium containing 10% of fetal bovine serum at 37°C in humidified atmosphere of 5% CO2. HEK293 cells (4×10^4 cells per well) were transiently transfected in 48 well plate with the reporter plasmids pMH100X4-TK-luc (100 ng/300µl), Renilla (22 ng/300µl) together with 100 ng/300µl of pCMX-Gal4-LXRα or pCMX-Gal4-LXRβ plasmids using X-tremeGENE 9 DNA Transfection Reagent (Roche). Six hours after transfection, the cells were treated with the appropriate compound for 24 hours. Luciferase activities were analyzed by luciferase Dual Reporter Assay Systems (Promega) according to the manufacturer's protocol. GAL4-LXRs, and TK-MHC100-luc plasmids were described in^7. […] Six hours after transfection, the cells were treated with the appropriate compound for 40 hours. Luciferase activity was analyzed as described above and protein content spectrophotometrically using Coomassie Plus Protein assay reagent (Thermo Scientific). Quantitative Real-Time-PCR. U937 cell line was differentiated in foam macrophages with phorbol 12-myristate 13-acetate (PMA) 10 ng/ml (Sigma) for 72 hours at 37°C in RPMI 10% FBS. At day 3 T0901317 (10 µM) or different amount of PFM037 (50, 25 and 10 µM) were added for 16 hours. Total RNA was purified by TRIZOL (Invitrogen). Reverse transcription was performed by MLV-reverse transcriptase (Promega). QPCR was performed using SYBR Green Master Mix (Applied Biosystems) and real-time PCR (Viia 7 Real Time PCR System, Applied Biosystems). PCR reactions were done in triplicate.

[1] = system: Lewis Lung Carcinoma (LLC); assay: Treatment of LLC tumor-bearing mice; assay type: in vivo
Excerpt: Tumor challenge experiments.

RMA lymphoma = assay: Treatment of RMA tumor-bearing mice; conditions: 300 µg i.v. 5 days/week
Description: Analysis of tumor infiltrating cells by flow cytometry. […] Tumors collected 7, 10, 12 or 14 days after injection were cut into small fragments and digested with Liberase TL (66 µg/ml, Roche) and DNAse I (150 µg/ml, Roche) for 25-30 minutes at 37 °C. Digested tissues were filtered by using a 75 µm diameter cell strainer. Single cell suspensions were stained with Live/Dead Violet kit reagents (Molecular Probes) for 30 minutes at 4°C. After washing, the cells were incubated for 5-10 minutes at RT with Fc-blocking solution (Anti-CD16/32, 10 µg/ml mouse Fc Block, BD) and then stained with various antibodies incubated at 4°C for 20 minutes. […] CD209a (5H10), CCR7 (4b12) and F4/80 (BM8) were from eBioscience. Rat IgG, Rat IgG2a, Rat IgG2b, Rat IgM and Hamster isotype control mAbs were used as controls (Biolegends and BD Biosciences). For intracellular staining, cells were incubated with PMA (100 ng/ml) and ionomycin (500 ng/ml) in the presence of 10 µg/ml of Brefeldin for 4 hours. Cells were then fixed using the IC Fixation buffer (eBioscience), permeabilized with 1x Permeabilization buffer (eBiosciences) and stained with anti-IFNy mAb. Samples were run by FACSCanto flow cytometer and analyzed by FlowJo software gating on live cells. FACS sorting was performed by using the FACSAria Fusion (BD)
Tumor challenge experiments. C57BL/6 mice were injected subcutaneously with LLC-Mock (1 ×10^6), LLC-SULT2B1b (1 ×10^6), RMA (2 ×10^5), or B16F1-OVA (2 ×10^5) tumor cells. […] Tumor size was evaluated by measuring perpendicular diameters by a caliper every 2-3 days. Data are reported as the average tumor volume ± SD. In selected experiments tumors were injected in Ccr2^-/-mice.
Treatment of tumor-bearing mice with LXR antagonists alone or with immunotherapy. Tumor-bearing mice were treated with 25-HC-3S or PFM037 6-7 days after tumor challenge. After 6-7 days, mice were randomly assigned to either treatment or vehicle groups. Mice were injected with 300 µg of either compound given i.v. for 5 days/week. […] B16F1-OVA-bearing mice were treated with 400 µg of PFM037 for 5 days/week. For controls of mAb experiments, mice were injected with 250 µg of rat IgG2a isotype control antibody. […] Tumors were collected and measured 14 days after tumor challenge.

LLC tumor cells = assay: In vitro growth of LLC tumor cells; assay type: cell-based, mouse; conditions: compared with vehicle
[2] = LLC-bearing mice, 300 µg i.v. 5 days/week from day 6-7, vs vehicle

Q: CC(C)CC[C@@H](O)[C@@H](C)[C@H]1CC[C@H]2[C@@H]3CC=C4C[C@@H](O)CC[C@]4(C)[C@H]3CC[C@]12C [22R-HC] was tested. Which luciferase activity (LXRα-LBD) did it give?
A: induced luciferase activity

Q: And the luciferase activity (LXRβ-LBD)?
A: induced luciferase activity

Q: With CC(C)CC[C@H](O)[C@@H](C)[C@H]1CC[C@H]2[C@@H]3CC=C4C[C@@H](O)CC[C@]4(C)[C@H]3CC[C@]12C [22S-HC, 22S-hydroxycholesterol] as the compound, how does the “antagonism of LXRα activation induced by 22R-HC” value (LXRα) read?
A: does not antagonize; also recorded: did not antagonize

Q: Which “absolute numbers of tumor-infiltrating mono-DCs” value [1, 2] does the source give for C[C@H](CCCC(C)(C)O)[C@H]1CC[C@H]2[C@@H]3CC=C4C[C@@H](OS(=O)(=O)O)CC[C@]4(C)[C@H]3CC[C@]12C [25-HC-3S, 25-Hydroxycholesterol-3-sulfate, reference compound] here?
A: Higher

Q: What about the tumor growth [1, 2] of the same compound?
A: delay of tumor growth

Q: And the “numbers of tumor-infiltrating mono-DCs” value (RMA lymphoma)?
A: Higher

Q: What about the tumor growth (RMA lymphoma; tumor weight at sacrifice) of the same compound?
A: tumor growth control

Q: What about the “in vitro growth of LLC tumor cells” value (LLC tumor cells) of the same compound?
A: grew in a similar manner

Q: And the IC50 (LXRα)?
A: 12.7 µM

Q: What about the “antagonism of LXRα activation induced by 22R-HC” value (LXRα) of the same compound?
A: antagonized the LXRα activity in a dose-dependent manner

Q: C[C@@H]([C@H]1CC[C@H]2[C@@H]3CC=C4C[C@@H](O)CC[C@]4(C)[C@H]3CC[C@]12C)[C@@H](O)Cc1ccccc1 [PFM046, (22S)-23-Phenyl-24-norchol-5-en-3β,22-diol] was tested. Which tumor growth ([1]; established LLC tumors, 300 µg/mouse every other day, Fig. 24B) did it give?
A: able to control LLC tumor growth; also recorded: controls tumor growth

Source: EP4417616A1, “LXR ANTAGONISTS” (Ospedale San Raffaele S.r.l., priority 2023, dated 2024)
